Assay results as given in article PMC3171769, “Catalytical Properties of Free and Immobilized Aspergillus niger Tannase” (Enzyme Research, 2011).

Tested on: T1, tannase (tannin acyl hydrolase, TAH) from Aspergillus niger GH1
T1 construct: native intracellular enzyme from submerged culture with tannic acid
Test: HPLC of released gallic acid; Lineweaver-Burk
Format: biochemical
Conditions: free, partially purified enzyme; 50 mM citrate pH 5.5, 30 °C; read-out: Free tannase / K M
Description: HPLC of released gallic acid; Lineweaver-Burk on tannase (tannin acyl hydrolase, TAH) from Aspergillus niger GH1

Km: 0.433 mM
SMILES: COC(=O)c1cc(O)c(O)c(O)c1 [methyl gallate]
